In ChEMBL document CHEMBL5385846, “Discovery and development of palmatine analogues as anti-NASH agents by activating farnesoid X receptor (FXR)” (Eur J Med Chem, 2023):
Activity calls are given as the source filed them. The rule behind the calls is not given here.

Columns and labels:
[1] = biological target: Collagen alpha-1(I) chain (Homo sapiens) (UniProt P02452); assay: Inhibition of COL1A1 (unknown origin) expressed in human LX2 cells at 20 micromol/L incubated for 48 hrs by Bright-Glo luciferase assay relative to control; format: cell-based; conditions: dose 20.0 µmol/L
Mus musculus [2] = assay: Hepatoprotective activity in CDAHFD induced C57BL/6N mouse liver injury model assessed as effect on AST level at 15 mg/kg,po qd administration for 4 weeks; format: functional, organism-based
Mus musculus [3] = assay: Hepatoprotective activity in CDAHFD induced C57BL/6N mouse liver injury model assessed as effect on ALP level at 15 mg/kg,po qd administration for 4 weeks; format: functional, organism-based
Mus musculus [4] = assay: Hepatoprotective activity in CDAHFD induced C57BL/6N mouse liver injury model assessed as effect on total bilirubin level at 15 mg/kg,po qd administration for 4 weeks; format: functional, organism-based
Mus musculus [5] = assay: Hepatoprotective activity in CDAHFD induced C57BL/6N mouse liver injury model assessed as decrease in total cholesterol at 15 mg/kg,po qd administration for 4 weeks; format: functional, organism-based
Mus musculus [6] = assay: Hepatoprotective activity in CDAHFD induced C57BL/6N mouse liver injury model assessed as effect on ALT level at 15 mg/kg,po qd administration for 4 weeks; format: functional, organism-based
Mus musculus [7] = assay: Hepatoprotective activity in CDAHFD induced C57BL/6N mouse liver injury model assessed as decrease in triglyceride level at 15 mg/kg,po qd administration for 4 weeks; format: functional, organism-based
Mus musculus [8] = assay: Hepatoprotective activity in CDAHFD induced C57BL/6N mouse liver injury model assessed as effect on HDL level at 15 mg/kg,po qd administration for 4 weeks; format: functional, organism-based
Mus musculus [9] = assay: Hepatoprotective activity in CDAHFD induced C57BL/6N mouse liver injury model assessed as effect on LDH level at 15 mg/kg,po qd administration for 4 weeks; format: functional, organism-based
Mus musculus [10] = assay: Hepatoprotective activity in CDAHFD induced C57BL/6N mouse liver injury model assessed as effect on glucose level at 15 mg/kg,po qd administration for 4 weeks; format: functional, organism-based
Mus musculus [11] = assay: Hepatoprotective activity in CDAHFD induced C57BL/6N mouse liver injury model assessed as effect on LDL level at 15 mg/kg,po qd administration for 4 weeks; format: functional, organism-based
COL1A1 = assay: Selectivity index, ratio of CC50 for cytotoxicity against human LX2 cells to IC50 for inhibition of COL1A1 (unknown origin) expressed in human LX2 cells; format: toxicity, cell-based; conditions: read-out: Ratio CC50/IC50
[12] = Cytotoxicity against human LX2 cells assessed as inhibition of cell growth; format: toxicity, cell-based, LX-2

Chain of Collagen alpha-1(I) chain (Homo sapiens) (P02452 whole entry): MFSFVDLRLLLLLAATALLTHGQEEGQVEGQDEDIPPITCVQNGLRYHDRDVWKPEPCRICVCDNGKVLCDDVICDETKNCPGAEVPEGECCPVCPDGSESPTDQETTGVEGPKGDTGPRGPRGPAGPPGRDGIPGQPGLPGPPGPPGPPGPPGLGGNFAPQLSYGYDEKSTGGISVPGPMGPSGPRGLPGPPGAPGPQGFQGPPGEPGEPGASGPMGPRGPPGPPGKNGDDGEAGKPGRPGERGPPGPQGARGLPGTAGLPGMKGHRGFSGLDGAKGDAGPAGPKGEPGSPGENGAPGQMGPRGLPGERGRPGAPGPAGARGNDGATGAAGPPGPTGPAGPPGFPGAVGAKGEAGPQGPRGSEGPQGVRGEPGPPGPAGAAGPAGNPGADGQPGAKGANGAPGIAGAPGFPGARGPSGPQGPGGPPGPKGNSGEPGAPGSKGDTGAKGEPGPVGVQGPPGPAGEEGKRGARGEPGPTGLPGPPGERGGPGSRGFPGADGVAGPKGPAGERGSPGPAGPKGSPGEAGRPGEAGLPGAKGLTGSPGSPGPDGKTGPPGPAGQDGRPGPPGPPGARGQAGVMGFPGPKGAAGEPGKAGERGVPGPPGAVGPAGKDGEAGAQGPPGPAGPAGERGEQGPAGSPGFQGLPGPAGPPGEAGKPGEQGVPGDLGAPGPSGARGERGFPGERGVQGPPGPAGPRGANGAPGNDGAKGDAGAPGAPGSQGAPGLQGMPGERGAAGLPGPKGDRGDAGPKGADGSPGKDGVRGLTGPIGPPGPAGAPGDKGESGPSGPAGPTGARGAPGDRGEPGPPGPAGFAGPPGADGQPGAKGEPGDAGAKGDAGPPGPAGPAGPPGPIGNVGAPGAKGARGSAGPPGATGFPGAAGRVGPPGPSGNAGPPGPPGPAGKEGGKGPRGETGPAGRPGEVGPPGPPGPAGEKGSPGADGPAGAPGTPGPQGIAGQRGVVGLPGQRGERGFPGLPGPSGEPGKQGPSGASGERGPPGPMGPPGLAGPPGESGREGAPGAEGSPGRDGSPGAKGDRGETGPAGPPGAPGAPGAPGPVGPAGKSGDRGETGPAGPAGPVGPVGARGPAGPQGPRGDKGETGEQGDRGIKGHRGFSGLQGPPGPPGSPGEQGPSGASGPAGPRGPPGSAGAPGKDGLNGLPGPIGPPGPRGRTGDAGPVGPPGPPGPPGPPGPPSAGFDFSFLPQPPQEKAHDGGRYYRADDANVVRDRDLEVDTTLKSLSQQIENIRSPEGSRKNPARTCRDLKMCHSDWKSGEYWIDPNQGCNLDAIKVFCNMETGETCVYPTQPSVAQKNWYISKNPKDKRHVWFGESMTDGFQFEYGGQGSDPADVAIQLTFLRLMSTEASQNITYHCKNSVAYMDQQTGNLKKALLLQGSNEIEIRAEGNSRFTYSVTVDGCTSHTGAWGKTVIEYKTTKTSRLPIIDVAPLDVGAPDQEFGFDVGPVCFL

Row | SMILES | inhibition [1] | other results
1 | O=C(O[C@@H]1Cc2c(O)cc(O)cc2O[C@@H]1c1cc(O)c(O)c(O)c1)c1cc(O)c(O)c(O)c1 | 27.6% | 
2 | COc1cc2c(cc1OC)-c1cc3ccc(OC)c(NCc4ccc(Cl)cc4)c3c[n+]1CC2 | 93.6% | 
3 | COc1cc2c(cc1OC)-c1cc3ccc(OC)c(OCc4ccc(Cl)cc4)c3c[n+]1CC2 | 28.9% | 
4 | CCCCCCCOc1c(OC)ccc2cc3[n+](cc12)CCc1cc(OC)c(OC)cc1-3 | 94.4% | 
5 | CCOc1cc2c(cc1OC)-c1cc3ccc(OC)c(NCc4ccc(C)cc4)c3c[n+]1CC2 | 36% | 
6 | CCCCCCCCCOc1c(OC)ccc2cc3[n+](cc12)CCc1cc(OC)c(OC)cc1-3 | 99.9% | 
7 | CC[C@H]1[C@@H](O)[C@@H]2[C@H](CC[C@]3(C)[C@@H]([C@H](C)CCC(=O)O)CC[C@@H]23)[C@@]2(C)CC[C@@H](O)C[C@@H]12 |  | Activity (Mus musculus [2]): inactive; Activity (Mus musculus [3]): inactive; Activity (Mus musculus [4]): inactive; Activity (Mus musculus [5]): Active; Activity (Mus musculus [6]): inactive; Activity (Mus musculus [7]): Active; Activity (Mus musculus [8]): inactive; Activity (Mus musculus [9]): inactive; Activity (Mus musculus [10]): Active; Activity (Mus musculus [11]): inactive
8 | COc1cc2c(cc1OC)-c1cc3ccc(OC)c(OCc4cccc(C#N)c4)c3c[n+]1CC2 | 24.1% | 
9 | COc1cc2c(cc1OC)-c1cc3ccc(OC)c(NCc4ccc(Br)cc4)c3c[n+]1CC2 | 18.4% | 
10 | COc1cc2c(cc1OC)-c1cc3ccc(OC)c(OCc4ccc(C)cc4)c3c[n+]1CC2 | 25.6% | 
11 | CCCCCCCCC(=O)Nc1c(OC)ccc2cc3[n+](cc12)CCc1cc(OC)c(OC)cc1-3 | 16.6% | 
12 | CCC(=O)Nc1c(OC)ccc2cc3[n+](cc12)CCc1cc(OC)c(OC)cc1-3 | 0% | 
13 | COc1cc2c(cc1OC)-c1cc3ccc(OC)c(NC(=O)c4cc(C)nn4C)c3c[n+]1CC2 | 0% | 
14 | COc1cc2c(cc1OC)-c1cc3ccc(OC)c(OCC4CCCC4)c3c[n+]1CC2 | 46% | selectivity ratio (COL1A1): 2.65; CC50 [12]: 64 µM
15 | CCCC(=O)Nc1c(OC)ccc2cc3[n+](cc12)CCc1cc(OC)c(OC)cc1-3 | 5.11% | 
16 | COc1cc2c(cc1OC)-c1c(Cc3cccc(Br)c3)c3ccc(OC)c(OC)c3c[n+]1CC2 | 62.8% | selectivity ratio (COL1A1): 3.06; CC50 [12]: 45.5 µM
17 | COc1cc2c(cc1OC)-c1cc3ccc(OC)c(OCc4ccc(C(F)(F)F)cc4)c3c[n+]1CC2 | 38.7% | 
18 | COc1cc2c(cc1OC)-c1c(Cc3ccccc3C)c3ccc(OC)c(OC)c3c[n+]1CC2 | 58.4% | selectivity ratio (COL1A1): 3.21; CC50 [12]: 45.6 µM
19 | COc1cc2c(cc1OC)-c1cc3ccc(OC)c(OCc4ccc(C#N)cc4)c3c[n+]1CC2 | 5.2% | 
20 | COc1cc2c(cc1OC)-c1cc3ccc(OC)c(OC(=O)C(=O)c4cccnc4)c3c[n+]1CC2 | 6.07% | 
21 | COc1cc2c(cc1OC)-c1cc3ccc(OC)c(OC(=O)c4ccco4)c3c[n+]1CC2 | 0% | 
22 | CCCCC(=O)Nc1c(OC)ccc2cc3[n+](cc12)CCc1cc(OC)c(OC)cc1-3 | 0% | 

Row | SMILES | inhibition [1] | other results
23 | COc1cc2c(cc1OC)-c1c(Cc3ccc(Br)cc3)c3ccc(OC)c(OC)c3c[n+]1CC2 | 85.7% | 
24 | CCCNc1c(OC)ccc2cc3[n+](cc12)CCc1cc(OC)c(OC)cc1-3 | 22.6% | 
25 | COc1cc2c(cc1OC)-c1cc3ccc(OC)c(NC(=O)C4CCCC4)c3c[n+]1CC2 | 10.8% | 
26 | COC(=O)C(Oc1c(OC)ccc2cc3[n+](cc12)CCc1cc(OC)c(OC)cc1-3)c1ccccc1 (stereo not given) | 23.4% | 
27 | COc1cc2c(cc1OC)-c1cc3ccc(OC)c(OCC4CC4)c3c[n+]1CC2 | 14% | 
28 | COc1cc2c(cc1OC)-c1cc3ccc(OC)c(OC(=O)Cc4ccc(C(F)(F)F)cc4)c3c[n+]1CC2 | 12.4% | 
29 | CCOc1cc2c(cc1OC)-c1cc3ccc(OC)c(NCc4ccc(F)cc4)c3c[n+]1CC2 | 24.8% | 
30 | COc1cc2c(cc1OC)-c1cc3ccc(OC)c(NCc4ccccc4)c3c[n+]1CC2 | 25.4% | 
31 | COc1ccc(C(=O)Nc2c(OC)ccc3cc4[n+](cc23)CCc2cc(OC)c(OC)cc2-4)cc1 | 2.39% | 
32 | COc1cc2c(cc1OC)-c1cc3ccc(OC)c(OCC4CCC4)c3c[n+]1CC2 | 9.25% | 
33 | COc1cc2c(cc1OC)-c1cc3ccc(OC)c(NC(=O)C4CCCCC4)c3c[n+]1CC2 | 3.33% | 
34 | COc1cc2c(cc1OC)-c1c(Cc3cccc([N+](=O)[O-])c3)c3ccc(OC)c(OC)c3c[n+]1CC2 | 13% | 
35 | COc1ccc(CNc2c(OC)ccc3cc4[n+](cc23)CCc2cc(OC)c(OC)cc2-4)c(OC)c1 | 36% | 
36 | COc1cc2c(cc1OC)-c1cc3ccc(OC)c(OCc4ccc(F)cc4)c3c[n+]1CC2 | 10.9% | 
37 | COc1cc2c(cc1OC)-c1c(Cc3cccc(F)c3)c3ccc(OC)c(OC)c3c[n+]1CC2 | 24.8% | 
38 | COc1cc2c(cc1OC)-c1c(Cc3cccc(C)c3)c3ccc(OC)c(OC)c3c[n+]1CC2 | 0% | 
39 | CCOc1cc2c(cc1OC)-c1cc3ccc(OC)c(NCc4ccccc4)c3c[n+]1CC2 | 12.4% | 
40 | COc1cc2c(cc1OC)-c1c(Cc3ccc(C(C)C)cc3)c3ccc(OC)c(OC)c3c[n+]1CC2 | 99.9% | 
41 | COc1cc2c(cc1OC)-c1cc3ccc(OC)c(OCc4ccccc4C#N)c3c[n+]1CC2 | 23% | 
42 | COC(=O)/C=C/c1ccc(Cc2c3[n+](cc4c(OC)c(OC)ccc24)CCc2cc(OC)c(OC)cc2-3)cc1 | 0% | 
43 | CCCCCOc1c(OC)ccc2cc3[n+](cc12)CCc1cc(OC)c(OC)cc1-3 | 36.7% | 
44 | COc1cc2c(cc1OC)-c1cc3ccc(OC)c(OC(=O)c4ccoc4C)c3c[n+]1CC2 | 9.91% | 

Row | SMILES | inhibition [1] | other results
45 | COc1cc2c(cc1OC)-c1c(Cc3cccc(C#N)c3)c3ccc(OC)c(OC)c3c[n+]1CC2 | 4.38% | 
46 | COc1cc2c(cc1OC)-c1cc3ccc(OC)c(OC(C)c4ccccc4)c3c[n+]1CC2 (stereo not given) | 22.1% | 
47 | COc1cc2c(cc1OC)-c1cc3ccc(OC)c(NC(=O)C4CCC4)c3c[n+]1CC2 | 18.9% | 
48 | CCOc1cc2c(cc1OC)-c1cc3ccc(OC)c(NCc4ccc(Br)cc4)c3c[n+]1CC2 | 8.92% | 
49 | CCCCCCNc1c(OC)ccc2cc3[n+](cc12)CCc1cc(OC)c(OC)cc1-3 | 71.4% | 
50 | COc1cc2c(cc1OC)-c1cc3ccc(OC)c(NCc4ccc(C)cc4)c3c[n+]1CC2 | 79.2% | selectivity ratio (COL1A1): 5.82; CC50 [12]: 65.5 µM
51 | COc1cc2c(cc1OC)-c1cc3ccc(OC)c(NCc4cccc(C#N)c4)c3c[n+]1CC2 | 10.5% | 
52 | COc1cc2c(cc1OC)-c1cc3ccc(OC)c(OCc4cc(C)cc(C)c4)c3c[n+]1CC2 | 25% | 
53 | COc1cc2c(cc1OC)-c1cc3ccc(OC)c(NC(=O)c4cccc(F)c4)c3c[n+]1CC2 | 1.12% | 
54 | COc1cc2c(cc1OC)-c1c(Cc3ccc(C#N)cc3)c3ccc(OC)c(OC)c3c[n+]1CC2 | 16.3% | 
55 | COc1cc2c(cc1OC)-c1cc3ccc(OC)c(OCCc4ccc(C(F)(F)F)cc4)c3c[n+]1CC2 | 56.3% | selectivity ratio (COL1A1): 6.05; CC50 [12]: 88.9 µM
56 | COc1cc2c(cc1OC)-c1cc3ccc(OC)c(NCc4ccc(F)cc4)c3c[n+]1CC2 | 23.7% | 
57 | COc1cccc(COc2c(OC)ccc3cc4[n+](cc23)CCc2cc(OC)c(OC)cc2-4)c1 | 21.4% | 
58 | COc1cc2c(cc1OC)-c1c(Cc3ccc(F)cc3)c3ccc(OC)c(OC)c3c[n+]1CC2 | 22.6% | 
59 | COc1cc2c(cc1OC)-c1cc3ccc(OC)c(OCc4ccccn4)c3c[n+]1CC2 | 15.2% | 
60 | COc1cc2c(cc1OC)-c1cc3ccc(OC)c(NC(=O)c4ccccc4)c3c[n+]1CC2 | 0% | 
61 | COc1cc2c(cc1OC)-c1cc3ccc(OC)c(OCc4ccc(C(C)C)cc4)c3c[n+]1CC2 | 75% | selectivity ratio (COL1A1): 3.66; CC50 [12]: 28.7 µM
62 | COc1cc(Cc2c3[n+](cc4c(OC)c(OC)ccc24)CCc2cc(OC)c(OC)cc2-3)cc(OC)c1 | 39% | 
63 | COc1cc2c(cc1OC)-c1c(Cc3ccccc3C#N)c3ccc(OC)c(OC)c3c[n+]1CC2 | 24.9% | 
64 | COc1ccc(COc2c(OC)ccc3cc4[n+](cc23)CCc2cc(OC)c(OC)cc2-4)cc1OC | 12.6% | 
